Assays:
Experiment in all cases: NCI 60 screen, five dose
Assay type in all cases: cell-based
[1] = system: K-562; conditions: Homo sapiens, K562, Leukemia, GI50 = molar concentration, read-out: Log10 GI50 (converted)
[2] = system: MDA-MB-468; conditions: Homo sapiens, Breast Cancer, GI50 = molar concentration, read-out: Log10 GI50 (converted)
[3] = system: MOLT-4; conditions: Homo sapiens, Leukemia, GI50 = molar concentration, read-out: Log10 GI50 (converted)
[4] = system: HS 578T; conditions: Homo sapiens, Breast Cancer, GI50 = molar concentration, read-out: Log10 GI50 (converted)

O=C(NO)c1ccc(S(=O)(=O)N2CCN(c3nc4ccccc4o3)CC2)cc1 [Compound 9c, 4-(4-Benzoxazol-2-yl-piperazin-1-sulfonyl)-N -hydroxy-benzamid]
GI50 [1]: 6.31 µM
GI50 [2]: 11 µM

O=C(NO)c1ccc(S(=O)(=O)N2CCN(c3nc4ccccc4s3)CC2)cc1 [Compound 9d, 4-(4-Benzothiazol-2-yl-piperazin-1-sulfonyl)-N -hydroxy-benzamid]
GI50 [3]: 3.02 µM
GI50 [4]: 1.45 µM
